The results in this text go back to US20140243374A1, “Novel Sulfonamides” (The Brigham and Women's Hospital, Inc., priority 2011, published 2014).

SMILES strings stand for the structures. “And” between values parts separate entries of the source, which are not always exact repeats. Identical values can stand only once.

The target in series [1] is T1, γ-secretase (cleavage of Notch) (Homo sapiens, UniProt P49768).
T1 construct: endogenous in cells; host or cells: U2OS luciferase reporter cells with Tet-on Notch
Put plainly: Notch cellular assay (luciferase reporter U2OS cells). In kind it is cell-based. The settings on record: for IC50: U2OS luciferase reporter cells; for Notch Luc/Aβ42: ratio Notch luciferase IC50 to Aβ42 IC50. As to the method: This assay was used to determine if the compounds of interest inhibit the cleavage of Notch by γ-secretase in cells. A U2OS cell line in which the luciferase expression is adjusted by active Notch was used in this assay Notch expression is adjusted using Tet-on promoter. Luciferase reporter U2OS cells are plated at 1000 cells/well in 96 well plates in DMEM containing 100 μg/mL hygromycin, 15 μg/mL blasticidin and 1 μg/mL Tetracycline. Compounds were added 24 h after plating and the cells are lysed 6 days after adding compounds. Luciferase expression was performed using Steady-Glo Luciferase Assay System (Promega).
Background: Reporter assays use an easily measured gene product as a stand-in for the process of interest.

Series [2] addresses T2, γ-secretase (cleavage of APP, Aβ42) (Homo sapiens, UniProt P49768).
T2 construct: endogenous in cells; host or cells: HEK AP-GL-T16 luciferase reporter cells (tetracycline-induced APP substrate)
Put plainly: Aβ (1-42) cellular assay (Aβ ELISA, HEK AP-GL-T1 6 cells). The class given is cell-based. The settings on record: cellular Aβ42 ELISA, 24 h compound treatment. The method, boiled down:
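HEK AP-GL-T1 6 cells, with APP processing induced by tetracycline at compound addition 24 h post-plating. After 24 h of treatment, Aβ42 in conditioned medium (protease inhibitors added, frozen) was quantified by fluorometric sandwich ELISA (ex 460/em 560 nm) against an Aβ peptide standard curve.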
In general terms: ELISA stands for enzyme-linked immunosorbent assay.

The target of series [3] is T3, γ-secretase (Notch cleavage activity) (Homo sapiens, UniProt P49768).
T3 construct: endogenous in cells; host or cells: SUP-T1 cells
Put plainly: Cleaved Notch1 Sandwich ELISA (SUP-T1 cell line). The class given is cell-based. The settings on record: for IC50: SUP-T1 cells, 16 h; for Notch Elisa/Aβ42: ratio Notch Elisa IC50 to Aβ42 IC50. In short, it runs like this:
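SUP-T1 cells endogenously express a truncated Notch fragment that serves as γ-secretase substrate. Cells at 1.0×10^6 cells/mL in RPMI-1640 with 10% FBS were treated 16 h with serially diluted compounds in DMSO. Cleaved Notch intracellular domain was quantified by sandwich ELISA on equal protein amounts.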

For orientation: IC50 means the concentration that gives 50% inhibition. A high value points to weaker potency in that assay. What is called melting point is the temperature of the solid-liquid transition. As to `CC1CCCCC1N(Cc1ccc(C(=O)O)cc1)S(=O)(=O)c1ccc(Cl)cc1` (stereo not shown) [Example 3, 4-((4-Chloro-N-(2-methylcyclohexyl)phenylsulfonamido)methyl)benzoic acid], the melting point lay within 180 to 182 °C. Besides, in series [1], the IC50 is 5 µM and 4.4 µM and 4.3 µM; the “Notch Luc/Aβ42” value was 585. The IC50 in series [2] was 0.007 µM and 0.0127 µM and 0.0038 µM. Moreover, in series [3], the IC50 was found to be 0.35 µM and the “Notch Elisa/Aβ42” value is 45.

`CC1CCCCC1N(Cc1ccc(C(=O)N[C@@H](C)CO)cc1)S(=O)(=O)c1ccc(Cl)cc1` (stereo partly drawn) [Example 5, 4-((4-Chloro-N-(2-methylcyclohexyl)phenylsulfonamido)methyl)-N—((S)-1-hydroxypropan-2-yl)benzamide] returned a melting point of 95 to 97 °C. For the same compound, in series [1], the IC50 amounted to 2.3 µM and the “Notch Luc/Aβ42” value is reported as 1586. Besides, the IC50 in series [2] was 0.0011 µM and 0.0018 µM. In series [3], the IC50 is 0.16 µM and the “Notch Elisa/Aβ42” value worked out at 110.

For the compound `CC1CCCCC1N(Cc1ccc(C(=O)NCCO)cc1)S(=O)(=O)c1ccc(Cl)cc1` (stereo not shown) [Example 6, 4-((4-Chloro-N-(2-methylcyclohexyl)phenylsulfonamido)methyl)-N-(2-hydroxyethyl)benzamide], the melting point was in the range of 105 to 107 °C. Besides, in series [1], the IC50 was 0.99 µM and the “Notch Luc/Aβ42” value came out at 1192. The compound also came in with an IC50 in series [2] of 0.00083 µM. In series [3], half-maximal inhibition (IC50) was put at 0.13 µM and the “Notch Elisa/Aβ42” value was 157.

Take `CC[C@@H](C1CCCCC1)N(Cc1ccc(C(=O)O)cc1)S(=O)(=O)c1ccc(Cl)cc1` [Example 15, (S)-4-((4-Chloro-N-(1-cyclohexylpropyl)phenylsulfonamido)methyl)benzoic acid]: the melting point was 147 to 149 °C. Also, in series [1], the IC50 is 20 µM and the “Notch Luc/Aβ42” value was determined as 715. Besides, in series [2], the concentration for half-maximal inhibition (IC50) was 0.028 µM.

In turn, `CC[C@@H](C1CCCC1)N(Cc1ccc(C(=O)O)cc1)S(=O)(=O)c1ccc(Cl)cc1` [Example 20, (S)-4-((4-Chloro-N-(1-cyclopentylpropyl)phenylsulfonamido)methyl)benzoic acid] came in with a melting point of 67 to 69 °C. Besides, in series [1], the IC50 was 40 µM and 100 µM; the “Notch Luc/Aβ42” value turned out to be 1400. This compound gave an IC50 in series [2] of 0.05 µM.

The compound `CC1CCCCC1N(Cc1ccc(C(=O)O)cc1)S(=O)(=O)c1ccc(C(F)(F)F)nc1` (stereo not shown) [Example 32, 4-((N-(2-Methylcyclohexyl)-6-(trifluoromethyl)pyridine-3-sulfonamido)methyl)benzoic acid] showed a melting point of 117 to 119 °C. In series [1], the IC50 came to 4.8 µM and the “Notch Luc/Aβ42” value is 169. The same compound registered an IC50 in series [2] of 0.0284 µM.

In turn, `CC1CCCCC1N(Cc1ccc(C(=O)NC(C)(C)C(=O)O)cc1)S(=O)(=O)c1ccc(Cl)cc1` (stereo not shown) [Example 34, 2-(4-((4-Chloro-N-(2-methylcyclohexyl)phenylsulfonamido)methyl)benzamido)-2-methylpropanoic acid] registered a melting point of 121 to 122 °C. For the same compound, in series [1], the IC50 is 8.09 µM and the “Notch Luc/Aβ42” value is recorded as 60. For the same compound, the half-inhibitory concentration (IC50) in series [2] came to 0.135 µM.

Regarding `CC1CCCCC1N(Cc1ccc(C(=O)NC(C)(C)CO)cc1)S(=O)(=O)c1ccc(Cl)cc1` (stereo not shown) [Example 37, 4-((4-Chloro-N-(2-methylcyclohexyl)phenylsulfonamido)methyl)-N-(1-hydroxy-2-methylpropan-2-yl)benzamide], the melting point lay in the range of 116 to 117 °C. The compound also returned an IC50 in series [1] of 2.54 µM. In series [2], the half-maximal inhibitory concentration (IC50) worked out at 0.0209 µM.
